Results on five molecules are retold here after patent US20190175467A1, “COMPOSITION FOR THE TREATMENT OF ACNE” (ROTTAPHARM LTD., priority 2015, published 2019).

Test [1] deals with Propionibacterium acnes ATCC 11827. The test is described as follows: Determination of MIC and MBC, P. acnes. The class given is cell-based. As to conditions: Cutibacterium acnes, ATCC11827; Propionibacterium acnes ATCC 11827, 2.6×10^4 cells per milliliter. On the procedure:
(§1) A series of test tubes was prepared containing the culture broth inoculated with the test micro-organism and the substance to be tested was introduced at decreasing scalar concentrations. […] The test tubes in which the microbial population developed were then determined by observing visually the turbidity that is indicative of growth. Test tubes in which the substance is present at a sufficient concentration to inhibit growth remain clear. When the nature itself of the sample prevents visual reading or if it is wished to determine whether the lack of development is due to a microbiostatic or microbicidal action, transfers are made to appropriate agar media for confirmation. The concentration of sample at which growth of the micro-organisms is inhibited is considered to be the Minimum Inhibitory Concentration (MIC), while that at which viable micro-organisms are no longer present is considered to be the Minimum Bactericidal Concentration (MBC) In a further set of experiments we tested the antibacterial activity of Salix alba extract and 1,2-decanediol, a substance which is known to show antibacterial activity against P. acnes, alone and in combination according to the above-described method. The microbial strain used was Propionibacterium acnes ATCC 11827 titrated at a concentration of 2.6×10^4 cells per milliliter of medium.

Test [2] has as its system TNFalpha. As to the kind of experiment: Anti-inflammatory activity: LPS-induced TNFalpha release in HaCat keratinocytes (ELISA). The class given is cell-based, human. The text has this:
(§2) The aim of the test was the evaluation of the anti-inflammatory activity of Salix alba extract, 1,2-decanediol and their combination by means of the study of TNFalpha, IL1alpha, IL8 synthesis modulation in a biological experimental model (keratinocyte cell culture HaCat).
(§3) In order to stimulate the inflammatory process in our experimental model, lipopolysaccharides (LPS) were selected. LPS are pro-inflammatory mediators secreted by bacteria, e.g. by P. acnes.
(§4) 1,2-decanediol (SMAL) was emulsified with corn oil (37° C.) in mechanical agitation and addition of culture medium, starting from the following ratio: 0.05 g emulsified with 100 μl corn oil in a final volume of culture medium of 1 ml (37° C.).
(§5) Salix alba extract (WMAL) was direct diluted in culture medium, starting from the following ratio: 0.05 g in 1 ml (37° C.); subsequent dilutions in culture medium (37° C.). […]
(§6) At the end of the monitored experimental period, cytokine levels were measured by means of ELISA assay. […]
(§7) Commercial ELISA kits were used for the determination of cytokine quantity.
(§8) The quantitative determination uses a calibration curve made-up of standard known and growing concentrations of standard cytokine. […]
(§9) In order to compare the two different work sessions, the obtained data were normalized in a 0-100% scale, in which CTR− is 0 and CTR+ is 100%; all the other data were calculated in this interval.

The subject of test [3] is IL8. The test is described as follows: Anti-inflammatory activity: LPS-induced IL8 release in HaCat keratinocytes (ELISA). The class given is cell-based, human.
Excerpt: as §2, §3, §4, §5, §6, §7, §8, §9

For test [4], the system named is IL-6. The test is described as follows: Anti-inflammatory activity: LPS-induced IL-6 release in HaCat keratinocytes (ELISA), as headed in Table 3. The class given is cell-based, human. To be noted: HaCat + LPS 10 ng/ml; CTR− is 0, CTR+ is 100%; WMAL 0.4%, SMAL 0.02%.
The test system of test [5] is IL1alpha. As to the kind of experiment: Anti-inflammatory activity: LPS-induced IL1alpha release in HaCat keratinocytes (ELISA). The class given is cell-based, human.
Excerpt: as §2, §3, §4, §5, §6, §7, §8, §9

The test system of test [6] is Propionibacterium acnes ATCC 11827. As to conditions: common knowledge; cited from earlier work.
The subject of test [7] is Staphylococcus aureus ATCC 25923. The test is described as follows: Determination of MIC and MBC, Staphylococcus aureus. To be noted: for MBC: ATCC25923; for MIC: ATCC25923, read-out: MIC. The class given is cell-based. On the procedure: as §1, with “The” for “In a further set of experiments we tested the”, “these substances against Staphylococcus aureus acnes ATCC 25923” for “Salix alba extract”, “Staphylococcus epidermidis ATCC 12228 was tested” for “1,2-decanediol, a substance which is known to show antibacterial activity against P. acnes, alone and in combination”, “method.” for “method. The microbial strain used was Propionibacterium acnes ATCC 11827 titrated at a concentration of 2.6×10^4 cells per milliliter of medium.”

The test system of test [8] is Staphylococcus epidermidis ATCC 12228. As to the kind of experiment: Determination of MIC and MBC, Staphylococcus epidermidis. The class given is cell-based. As to conditions: for MBC: ATCC12228; for MIC: ATCC12228, read-out: MIC. On the procedure:
as §1, with “The” for “In a further set of experiments we tested the”, “these substances against Staphylococcus aureus acnes ATCC 25923” for “Salix alba extract”, “Staphylococcus epidermidis ATCC 12228 was tested” for “1,2-decanediol, a substance which is known to show antibacterial activity against P. acnes, alone and in combination”, “method.” for “method. The microbial strain used was Propionibacterium acnes ATCC 11827 titrated at a concentration of 2.6×10^4 cells per milliliter of medium.”

Where [9] appears, read: HaCat + LPS 10 ng/ml, CTR− is 0, CTR+ is 100%, WMAL 0.4%, SMAL 0.02%.

Converted amounts (≈) assume the structure as drawn.

With `CCCCCCCCC(O)CO` (stereo not shown) [1,2-decanediol], in test [1], the MBC was 1250 µg/mL and the MIC was found to be 620 µg/mL. Moreover, the “effect on LPS-induced release of TNFalpha (in words)” value in test [2] (HaCat + LPS) was “significantly reduce”. Further, in test [2] (setting [9]), the “TNF-ALPHA, normalized data 0-100%” value amounted to 18.45%. In test [3] (HaCat + LPS), the “effect on LPS-induced release of IL8 (in words)” value is on record as “significantly reduce”. Moreover, the “IL-8, normalized data 0-100%” value in test [3] (setting [9]) is 34.56%. In addition, the “IL-6, normalized data 0-100%” value in test [4] is 61.69%. The “effect on LPS-induced release of IL1alpha (in words)” value in test [5] was “significantly reduce”. Also, the “antibacterial activity against P. acnes, as known (in words)” value in test [6] was “effective”.
In the case of `C=C[C@@](C)(/C=C/c1ccc(O)cc1)CCC=C(C)C` [Bakuchiol], in test [7], the MBC turned out to be 100 µg/mL (≈ 390 µM) and the MIC turned out to be 6.25 µg/mL (≈ 24.4 µM). Moreover, in test [8], the MBC stood at 100 µg/mL (≈ 390 µM) and the MIC was determined as 6.25 µg/mL (≈ 24.4 µM).
With `CCCCCCCCCCCC(=O)O` [Lauric Acid, Lauric acid], in test [8], the MBC is 1000 µg/mL (≈ 4990 µM) and the MIC is 500 µg/mL (≈ 2500 µM).
With `Oc1ccc(C=Cc2cc(O)cc(O)c2)cc1` [Resveratrol], in test [7], the MBC is more than 100000 µg/mL and the MIC amounted to 1000 µg/mL (≈ 4380 µM). In test [8], the MBC was more than 100000 µg/mL and the MIC came to 250 µg/mL (≈ 1100 µM).
As to `O=C(OOC(=O)c1ccccc1)c1ccccc1` [benzoyl peroxide], in test [1], the MBC worked out at 480 µg/mL and the MIC is 480 µg/mL. In addition, the “antibacterial activity against P. acnes, as known (in words)” value in test [6] is given as “strong antibacterial agent”.
